Test results from patent EP0042596B1, “Novel adenine nucleoside derivatives, their preparation and pharmaceutical compositions containing them” (REGENTS OF THE UNIVERSITY OF MINNESOTA, priority 1980, dated 1981).
In brackets after ≈: the same amount, converted by molar mass.

Columns and labels:
[1] = tested on: herpes simplex virus type 2; assay: Genital herpes infection in female guinea pigs, suppression of lesion development (intravaginal agarose gel treatment); type: in vivo; details: for animals with lesions: 5% vidarabine formulation in 0.8% agarose gel
Experimental: The antiviral efficacy of these compounds in the treatment of genital infections in female guinea pigs was determined, the infecting virus being herpes simplex virus […]. The in vivo efficacy was measured in terms of the effect of these compounds in suppressing lesion development induced by the infecting virus. The incidence of lesions for virus-infected animals treated with the test compound was measured and compared with the results obtained for virus-infected control animals treated with placebo, or with the results obtained for untreated virus-infected animals. In the control group of animals small lesions usually appeared 3 to 4 days following infection, the virus-induced lesions reaching a maximum severity around 7 days postinfection this peak being followed by scab formation and then healing. In each case the test animals were infected by intravaginal inoculation with the herpes simplex virus type 2 in 0.1 ml of cell culture medium. 0.1 ml of a 0.8% agarose gel containing the test compound at the stated concentration was then administered intravaginally, treatment commencing (unless otherwise stated) 3 hours postinfection and the test compound being administered 3 times daily for 7 days. […] For the results given in Table 2, drug administration was commenced 6 hours postinfection and the test compound administered three times daily for 5 days.

[2] = Solubility in water at 37°C; type: physicochemical; details: at 37°C in water
[3] = i.p.

## COCC(=O)OC[C@H]1C[C@@H](n2cnc3c(N)ncnc32)[C@@H](O)[C@@H]1O (racemic) [Compound B, 9-[2α,3β-dihydroxy-4α(methoxyacetoxymethyl)cyclopent-1 α-yl]adenine]
[1]; administration commenced 6 hours postinfection, three times daily for 5 days, controls 60-90%
  animals developed virus-induced lesions: 33%
[2]
  solubility: 75 mg/mL (≈ 222 mM)
[3]; highest dose tested of 750 mg/kg
  signs of toxicity: no signs of toxicity at all

## Nc1ncnc2c1ncn2[C@@H]1C[C@H](CO)[C@@H](O)[C@@H]1O (racemic) [cyclaradine, 9 - [2α,3β-dihydroxy - 4α - (hydroxymethyl)cyclopent - 1 a - yl] - adenine]
[1]; day 7 postinfection, concentration 3%
  test animals had lesions: 100%
[1]; day 7 postinfection, concentration 10%
  test animals had lesions: 100%
[2]
  solubility: 1 mg/mL (≈ 3.77 mM)
[3]; dose of 900 mg/kg
  lethality: not lethal

## Nc1ncnc2c1ncn2[C@@H]1O[C@H](CO)[C@@H](O)[C@@H]1O [vidarabine, 9-(β-D-arabinofuranosyl)-adenine]
[1]; day 4 postinfection
  animals with lesions: 50%
[1]; day 7 postinfection
  animals with lesions: 80%

## COCC(=O)OC[C@H]1O[C@@H](n2cnc3c(N)ncnc32)[C@@H](O)[C@@H]1O [Compound A, 9-s-D-Arabinofuranosyladenine-5'-methoxyacetate]
[1]; concentration of 15% in 0.8% agarose gel, intravaginal, start 3 hours postinfection, 3 times daily for 7 days
  lesion formation: completely suppressed lesion formation
